In PMC7031696 (Cell chemical biology, 2019):
pIC50: −log10 of the molar value. Where two headings read alike, the source gives them in different places.

What was measured:
[1] = test system: 3D7-MR4 trophozoite parasite-infected RBCs; assay: Metabolomic profiling (hydrophilic metabolite changes, UHPLC-MS); assay type: cell-based, Plasmodium falciparum
[2] = test system: 3D7-A10 or Dd2-B2 parasites; conditions: 3 × IC50^72h drug concentrations; ref Phillips et al., 2015; cited from earlier work
[3] = test system: Plasmodium falciparum 3D7-A10 parasites; assay: Stage specificity assay (8-h exposure of synchronized stages, IC50^8h); assay type: cell-based; conditions: for pIC50: Plasmodium falciparum
[4] = test system: 3D7-MR4 trophozoite parasite-infected RBCs; conditions: 10 × IC50^72h; ref Allman et al., 2016; cited from earlier work
[5] = test system: asynchronous 3D7-A10 parasite cultures; assay: Standard 72-h exposure asexual blood stage susceptibility assay (IC50^72h); assay type: cell-based, Plasmodium falciparum; conditions: Plasmodium falciparum, 3D7, 72 h, read-out: Overall (72hr assay) Mean IC50 (IC50^72h)

Cc1cc(Nc2ccc(S(F)(F)(F)(F)F)cc2)n2nc(C(C)(F)F)nc2n1 [DSM265, reference compound]
Log2(fold changes) 3-phosphoglycerate ([1]; metabolite 3-phosphoglycerate, log2 fold change): 0.0300 | Log2(fold changes) 4-Pyridoxic acid ([1]; metabolite 4-Pyridoxic acid, log2 fold change): -1.9900 | Log2(fold changes) 4-aminobutyrate ([1]; metabolite 4-aminobutyrate, log2 fold change): 0.1300 | Log2(fold changes) 4-phosphopantetheine ([1]; metabolite 4-phosphopantetheine, log2 fold change): 0.0000 | Log2(fold changes) 4-phosphopantothenate ([1]; metabolite 4-phosphopantothenate, log2 fold change): -0.1800 | Log2(fold changes) 5-aminopentanoic acid ([1]; metabolite 5-aminopentanoic acid, log2 fold change): 0.0000 | Log2(fold changes) 5-methyl-THF ([1]; metabolite 5-methyl-THF, log2 fold change): 0.0000 | Log2(fold changes) 5-phosphoribosyl-1-pyrophosphate ([1]; metabolite 5-phosphoribosyl-1-pyrophosphate, log2 fold change): -0.0200 | Log2(fold changes) 6-phospho-D-gluconate ([1]; metabolite 6-phospho-D-gluconate, log2 fold change): 0.2100 | Log2(fold change) HVDD ([1]; metabolite HVDD): 0.0000 | Log2(fold change) Hydroxyisocaproic acid ([1]; metabolite Hydroxyisocaproic acid): 0.0000 | Log2(fold change) IDP ([1]; metabolite IDP): 0.0000 | Log2(fold change) IMP ([1]; metabolite IMP): 0.1000 | Log2(fold change) Inositol ([1]; metabolite Inositol): 0.0000 | Log2(fold change) Isopentyl-PP ([1]; metabolite Isopentyl-PP): 0.0000 | Log2(fold change) L-arginino-succinate ([1]; metabolite L-arginino-succinate): 0.0000 | Log2(fold change) LD ([1]; metabolite LD): 0.0100 | Log2(fold change) Myristoyl/tetradecanoyl-CoA ([1]; metabolite Myristoyl/tetradecanoyl-CoA): 0.0000 | Log2(fold change) N-Acetyl-L-alanine ([1]; metabolite N-Acetyl-L-alanine): -0.3700 | Log2(fold change) N-acetyl-L-ornithine ([1]; metabolite N-acetyl-L-ornithine): -0.2000 | Log2(fold change) N-acetyl-glucosamine-1/6-phosphate ([1]; metabolite N-acetyl-glucosamine-1/6-phosphate): -0.7400 | Log2(fold change) N-acetyl-glutamate ([1]; metabolite N-acetyl-glutamate): 0.0900 | Log2(fold change) N-acetyl-glutamine ([1]; metabolite N-acetyl-glutamine): -0.1600 | Log2(fold change) N-carbamoyl-L-aspartate ([1]; metabolite N-carbamoyl-L-aspartate): 4.8500 | Log2(fold change) NAD+ ([1]; metabolite NAD+): 0.1500 | Log2(fold change) NADH ([1]; metabolite NADH): 0.7500 | Log2(fold change) NADP+ ([1]; metabolite NADP+): 0.0800 | Log2(fold change) NADPH ([1]; metabolite NADPH): 0.6400 | Log2(fold change) O-acetyl-L-serine ([1]; metabolite O-acetyl-L-serine): 0.0000 | Log2(fold change) Octoluse 8/1P ([1]; metabolite Octoluse 8/1P): 0.2400 | Log2(fold change) Octoluse Bisphosphate ([1]; metabolite Octoluse Bisphosphate): -0.2600 | Log2(fold change) PD ([1]; metabolite PD): -0.0800 | Log2(fold change) PE ([1]; metabolite PE): -0.3900 | Log2(fold change) PEE ([1]; metabolite PEE): -0.4300 | Log2(fold change) PEEK ([1]; metabolite PEEK): -0.3200 | Log2(fold change) PVNF ([1]; metabolite PVNF): -0.8600 | Log2(fold change) Pyroglutamic acid ([1]; metabolite Pyroglutamic acid): 0.0900 | Log2(fold change) Pyrophosphate ([1]; metabolite Pyrophosphate): 0.2500 | Log2(fold change) Ribose-5-phosphate ([1]; metabolite Ribose-5-phosphate): 0.0000 | Log2(fold change) S-adenosyl-L-homocysteine ([1]; metabolite S-adenosyl-L-homocysteine): -1.4900 | Log2(fold change) S-adenosyl-L-methioninamine ([1]; metabolite S-adenosyl-L-methioninamine): 0.0000 | Log2(fold change) S-adenosyl-L-methionine ([1]; metabolite S-adenosyl-L-methionine): 0.0000 | Log2(fold change) S-methyl-5'-thioadenosine ([1]; metabolite S-methyl-5'-thioadenosine): -0.0400 | Log2(fold change) SD ([1]; metabolite SD): -0.2500 | Log2(fold change) SDL ([1]; metabolite SDL): 0.0000 | Log2(fold change) SID ([1]; metabolite SID): 0.0000 | Log2(fold change) Sedoheptulose bisphosphate ([1]; metabolite Sedoheptulose bisphosphate): 0.0300 | Log2(fold change) Thiamine pyrophosphate ([1]; metabolite Thiamine pyrophosphate): 0.0000 | Log2(fold changes) UDP-D-glucose ([1]; metabolite UDP-D-glucose, log2 fold change): 0.0500 | Log2(fold changes) UDP-D-glucuronate ([1]; metabolite UDP-D-glucuronate, log2 fold change): 0.0200 | Log2(fold changes) UDP-N-acetyl-glucosamine ([1]; metabolite UDP-N-acetyl-glucosamine, log2 fold change): -0.1200 | Log2(fold changes) UDP ([1]; metabolite UDP, log2 fold change): -1.5400 | Log2(fold changes) UMP ([1]; metabolite UMP, log2 fold change): -0.9900 | Log2(fold changes) UTP ([1]; metabolite UTP, log2 fold change): -1.4400 | Log2(fold change) hydroxyphenylpyruvate ([1]; metabolite hydroxyphenylpyruvate): 0.0000 | Log2(fold change) hydroxyproline/Aminolevulinate ([1]; metabolite hydroxyproline/Aminolevulinate): 0.0000 | Log2(fold change) hypoxanthine ([1]; metabolite hypoxanthine): 0.3100 | Log2(fold change) indole ([1]; metabolite indole): 0.1900 | Log2(fold change) inosine ([1]; metabolite inosine): 0.2300 | Log2(fold change) isoleucine ([1]; metabolite isoleucine): 0.0000 | Log2(fold change) lactate ([1]; metabolite lactate): -0.1200 | Log2(fold change) leucine ([1]; metabolite leucine): 0.0000 | Log2(fold change) lysine ([1]; metabolite lysine): 0.0000 | Log2(fold change) malate ([1]; metabolite malate): -0.2600 | Log2(fold change) maleic acid ([1]; metabolite maleic acid): 0.0000 | Log2(fold change) methionine ([1]; metabolite methionine): 0.0000 | Log2(fold change) myo-inositol ([1]; metabolite myo-inositol): -0.8500 | Log2(fold change) nicotinamide mononucleotide ([1]; metabolite nicotinamide mononucleotide): 0.0000 | Log2(fold change) nicotinate ([1]; metabolite nicotinate): -0.0300 | Log2(fold change) ornithine ([1]; metabolite ornithine): -0.1100 | Log2(fold change) orotate ([1]; metabolite orotate): -0.2100 | Log2(fold change) orotidine-5'-phosphate ([1]; metabolite orotidine-5'-phosphate): 0.0000 | Log2(fold change) oxaloacetate ([1]; metabolite oxaloacetate): 0.0000 | Log2(fold change) p-aminobenzoate ([1]; metabolite p-aminobenzoate): 0.0000 | Log2(fold change) p-hydroxybenzoate ([1]; metabolite p-hydroxybenzoate): 0.2000 | Log2(fold change) pantothenate ([1]; metabolite pantothenate): 0.0000 | Log2(fold change) phenylalanine ([1]; metabolite phenylalanine): 0.0000 | Log2(fold change) phenylpyruvate ([1]; metabolite phenylpyruvate): 1.0600 | Log2(fold change) phosphoenolpyruvate ([1]; metabolite phosphoenolpyruvate): 0.0800 | Log2(fold change) prephenate ([1]; metabolite prephenate): 0.0000 | Log2(fold change) proline ([1]; metabolite proline): 0.0000 | Log2(fold change) pyridoxine ([1]; metabolite pyridoxine): 0.0000 | Log2(fold change) pyruvate ([1]; metabolite pyruvate): 0.0500 | Log2(fold change) riboflavin ([1]; metabolite riboflavin): 0.0000 | Log2(fold change) ribose ([1]; metabolite ribose): 0.0000 | Log2(fold change) ribose-phosphate ([1]; metabolite ribose-phosphate): 0.2500 | Log2(fold change) ribulose-5-phosphate ([1]; metabolite ribulose-5-phosphate): 0.0000 | Log2(fold change) serine ([1]; metabolite serine): 0.0000 | Log2(fold change) sn-glycerol-3-phosphate ([1]; metabolite sn-glycerol-3-phosphate): 0.1700 | Log2(fold change) succinate/Methylmalonic acid ([1]; metabolite succinate/Methylmalonic acid): -0.0400 | Log2(fold change) succinyl-CoA/methylmalonyl-CoA ([1]; metabolite succinyl-CoA/methylmalonyl-CoA): 0.0000 | Log2(fold change) taurine ([1]; metabolite taurine): 0.0000 | Log2(fold change) thiamine ([1]; metabolite thiamine): 0.0000 | Log2(fold change) threonine/homoserine ([1]; metabolite threonine/homoserine): 0.0000 | Log2(fold change) thymidine ([1]; metabolite thymidine): -0.5100 | Log2(fold changes) thymine ([1]; metabolite thymine, log2 fold change): -0.0500 | Log2(fold changes) trehalose-6-Phosphate ([1]; metabolite trehalose-6-Phosphate, log2 fold change): 0.0000 | Log2(fold changes) tryptophan ([1]; metabolite tryptophan, log2 fold change): 0.0000 | Log2(fold changes) tyrosine ([1]; metabolite tyrosine, log2 fold change): 0.0000 | Log2(fold changes) uridine ([1]; metabolite uridine, log2 fold change): -0.1000 | minimum inoculum for resistance [2]: 2 × 10^6 parasites | Ratio lowest IC50 8hr/IC50 72hr ([3]; 3D7-A10): 2.0 | overall activity profile (stages on which active) ([3]; 8-h exposures): activity against late trophozoites only | killing in stage specificity assay ([3]; 8-h exposures, survival curves): incomplete killing | pIC50 ([3]; 3D7, read-out: Early rings Mean IC50, shift 2): 5.32 | pIC50 ([3]; 3D7, read-out: Early trophozoites Mean IC50, shift 1): 7.99 | pIC50 ([3]; 3D7, read-out: Early trophozoites Mean IC50, shift 2): 5.83 | pIC50 ([3]; 3D7, read-out: Late rings Mean IC50, shift 2): 5.83 | pIC50 ([3]; 3D7, read-out: Late trophozoites Mean IC50, shift 1): 8.11 | pIC50 ([3]; 3D7, read-out: Schizonts IC50, shift 2): < 4.60 | pIC50 ([3]; 3D7, read-out: Schizonts Mean IC50, shift 1): 7.72 | shape of survival curve ([3]; early trophozoite and schizont stages): biphasic survival curve | Stage of peak activity (Figure 6) ([3]; period when the parasite was most susceptible (lowest IC50^8h)): late trophozoite stages | Peak Activity (Table S1) ([3]; stage(s) with the lowest IC50^8h): Late Trophs | metabolic signature: increases in the pyrimidine precursors dihydroorotate and N-carbamoyl-L-aspartate (mETC disruption) [4]: observed | pIC50 [5]: 8.42
